Source: article PMC8580050, “Improvement of the antimicrobial potency, pharmacokinetic and pharmacodynamic properties of albicidin by incorporation of nitrogen atoms” (Chemical Science, 2021)
Converted amounts (≈) assume the structure as drawn. Like-named read-outs stand apart in the source and are kept apart here.

Tests used:
[1] = system: S. aureus (ciprofloxacin resistant clinical isolate); experiment: microbe, parasite or virus in culture; format: cell-based, Staphylococcus aureus
Experimental: (§1) 1.1.1 In vitro experiments
(§2) Determination of Minimal inhibitory concentrations (MIC)
(§3) Approved Standard M07-A9.1
(§4) CFU mL-1. […] Albicidin and […]
(§5) and serially diluted in DMSO (100%). […]
(§6) in 0.1 N HCL, respectively.
(§7) One row of each well plate served as a […]
(§8) sterility control (only MHB II-media). […]
(§9) adding 5 µL DMSO to several wells. […]
(§10) for growth inhibition by naked eye.
(§11) Microorganisms and Cell Cultures (DSMZ): […]
(§12) Dr. Werner (Robert-Koch-Institut, Wernigerode, Germany): […]
(§13) for the following 11 pathogenic isolates: […]

[2] = system: E. coli knockout mutants from the KEIO collection (TolC, tsx); experiment: MIC on E. coli knockout mutants (KEIO collection); format: cell-based; details: for MIC: Escherichia coli
[3] = Pharmacokinetic study, i.v.
[4] = system: S. Typhimurium TA100; experiment: MIC determination (broth microdilution); format: cell-based, Salmonella typhimurium; details: Salmonella enterica; S. Typhimurium TA100; read-out: MIC
Experimental: as §1, §2, §3, §4, §5, §6, §7, §8, §9, §10, §11

[5] = system: fluoroquinolone-resistant (FQR) E. coli isolate; experiment: Murine septicaemia infection model; format: in vivo, CD-1 mice
Experimental: From a panel of clinical ESKAPE isolates one fluoroquinolone (FQR)-resistant E. coli strain was selected for the preparation of the infection model (Table S3 ^†). […] Bacterial payload (CFU) was measured from spleens and kidneys and compared to untreated control animals.
Pharmacokinetic calculations
1.1.3 Murine septicemia infection model
For in vivo infections study female CD-1 mice (RjOrl:SWISS, 6 weeks old) were purchased from Janvier Labs (Le Genest Saint Isle, France). The animals were allowed to acclimatize for at least seven days before the start of experiments. Group-Housing was realized in a pathogen-free, temperature- […]
and water ad libitum throughout the study. All experimental procedures were approved by and conducted in accordance to the institutional guidelines. […]
septicemia infection model. Following overnight incubation in Brain Heart infusion at 37°C, the strain was spin down at 2.500 rpm for 10 min. Immediately before use, bacteria pellet was resuspended in […]
For infection procedure, mice were briefly anesthetized with continuous inhalation of isoflurane.
100 µl of bacterial suspension were intravenously administered. At least nine animals were used for each of the following therapeutic groups:
- Untreated but infected animals: control group (PBS)
- Drug candidate, dose 1 group (6 mg kg-1);
- Drug candidate, dose 2 group (17 mg kg-1). […]
respectively. Animals were monitored for clinical signs throughout the whole study using a 4-point body condition score analyzing weight loss, respiratory distress, hampered mobility and hunched posture. Animals were euthanized after 24 hours of infection. Spleen and kidneys from each animal were removed, weighed, and homogenized in 2 mL of PBS and used for quantitative cultures on agar

[6] = molecular target: T1, E. coli DNA gyrase (Escherichia coli, UniProt P0AES4+P0AES6); experiment: E. coli gyrase supercoiling inhibition assay; format: biochemical; design: key: ↑: for stronger inhibition; ≈: for equal inhibition; ↓: for diminished inhibition compared to albicidin 1; details: constant concentration of 45 nM, compared to albicidin 1
T1 construct: purchased inspiralis Limited, Norwich, UK
Experimental: Escherichia coli Gyrase Supercoiling Inhibition Assay
loaded on an agarose gel.
2-15. […] Addition of DNA
All derivatives were tested at a concentration of […]

[7] = system: A. baumannii (ciprofloxacin resistant isolate); experiment: microbe, parasite or virus in culture; format: cell-based, Acinetobacter baumannii
Experimental: as §1, §2, §3, §4, §5, §6, §7, §8, §9, §10, §11, §12, §13

[8] = system: E. coli (ciprofloxacin susceptible clinical isolate); experiment: MIC, extended panel; format: cell-based; details: Escherichia coli
Experimental: as §1, §2, §3, §4, §5, §6, §7, §8, §9, §10, §11, §12

[9] = system: Salmonella Kentucky (ciprofloxacin susceptible clinical isolate); experiment: MIC, extended panel; format: cell-based; details: Salmonella enterica
Experimental: as §1, §2, §3, §4, §5, §6, §7, §8, §9, §10, §11, §12

[10] = system: E. coli (ciprofloxacin resistant clinical isolate); experiment: microbe, parasite or virus in culture; format: cell-based, Escherichia coli
Experimental: as §1, §2, §3, §4, §5, §6, §7, §8, §9, §10, §11, §12

[11] = system: M. phlei DSM 750; experiment: MIC determination (broth microdilution); format: cell-based, Mycobacterium phlei; details: Mycolicibacterium phlei, DSM750
Experimental: as §1, §2, §3, §4, §5, §6, §7, §8, §9, §10

[12] = system: P. aeruginosa (ciprofloxacin susceptible clinical isolate); experiment: MIC, extended panel; format: cell-based, Pseudomonas aeruginosa
Experimental: as §1, §2, §3, §4, §5, §6, §7, §8, §9, §10, §11, §12, §13

[13] = system: K. pneumoniae (ciprofloxacin resistant clinical isolate); experiment: microbe, parasite or virus in culture; format: cell-based; details: Klebsiella pneumoniae
Experimental: as §1, §2, §3, §4, §5, §6, §7, §8, §9, §10, §11, §12

[14] = system: Salmonella Kentucky (ciprofloxacin resistant clinical isolate); experiment: microbe, parasite or virus in culture; format: cell-based
Experimental: as §1, §2, §3, §4, §5, §6, §7, §8, §9, §10, §11, §12

[15] = system: E. coli DSM 1116 + 50% Human Serum; experiment: MIC determination in presence of 50% human serum; format: cell-based; details: Escherichia coli, DSM1116
Text: This investigation was completed by assessment of the antibacterial activity in presence of human plasma (50%) (Table 1), since high plasma protein binding can severely impair antibacterial activity and thus efficacy.
as §1, §2, §3, §4, §5, §6, §7, §8, §9, §10, §11

[16] = system: E. faecium (ciprofloxacin susceptible clinical isolate); experiment: microbe, parasite or virus in culture; details: Enterococcus faecium
[17] = system: K. pneumoniae (ciprofloxacin susceptible clinical isolate); experiment: MIC, extended panel; format: cell-based, Klebsiella pneumoniae
Experimental: as §1, §2, §3, §4, §5, §6, §7, §8, §9, §10, §11, §12

[18] = system: B. subtilis DSM 10; experiment: MIC determination (broth microdilution); format: cell-based; details: Bacillus subtilis, DSM10
Experimental: as §1, §2, §3, §4, §5, §6, §7, §8, §9, §10, §11

[19] = system: E. coli BW25113; experiment: MIC determination (broth microdilution); format: cell-based; details: Escherichia coli
Experimental: as §1, §2, §3, §4, §5, §6, §7, §8, §9, §10, §11

[20] = system: E. faecium (ciprofloxacin resistant clinical isolate); experiment: microbe, parasite or virus in culture; format: cell-based; details: Enterococcus faecium
Experimental: as §1, §2, §3, §4, §5, §6, §7, §8, §9, §10, §11, §12, §13

[21] = system: P. aeruginosa (ciprofloxacin resistant clinical isolate); experiment: microbe, parasite or virus in culture; format: cell-based; details: Pseudomonas aeruginosa
Experimental: as §1, §2, §3, §4, §5, §6, §7, §8, §9, §10, §11, §12, §13

[22] = system: S. aureus (ciprofloxacin susceptible clinical isolate); experiment: MIC, extended panel; format: cell-based; details: Staphylococcus aureus
Experimental: as §1, §2, §3, §4, §5, §6, §7, §8, §9, §10, §11, §12, §13

[23] = system: M. luteus DSM1790; experiment: MIC determination (broth microdilution); format: cell-based, Micrococcus luteus; details: Micrococcus luteus, DSM1790
Experimental: as §1, §2, §3, §4, §5, §6, §7, §8, §9, §10, §11

[24] = system: E. coli DSM 1116; experiment: MIC determination (broth microdilution); format: cell-based, Escherichia coli
Experimental: as §1, §2, §3, §4, §5, §6, §7, §8, §9, §10, §11

[25] = Tolerability assessment; format: in vivo, CD-1 mice; details: intravenous injection, 50 mg kg^−1, mice
Experimental: Application volume of 5 ml kg-1 was used. Samples of K-EDTA blood were collected from each mouse […]
An individual blood cell count was performed for each sample. […]
performed with help of the grimace scale to monitor any changes in facial expression. […]
were sacrificed, and a macroscopic necropsy was performed to search for damaged organs. Data of blood cell count is given in Table S7 and reference values for measured blood cell parameters are given

[26] = in vitro; details: plasma, pH 7.4
Experimental: Determination of plasma stability
Human and murine plasma aliquots (Sigma-Aldrich, Taufkirchen, Germany) were thawed and subsequently centrifuged at 3000 rpm for 10 min at 4°C. Resulting supernatant was diluted in the same volume of phosphate buffer (pH 7.4) to obtain a plasma concentration of 50% (v/v). Stock solutions of […]
concentration of 20 µM (5% DMSO). Following incubation at 37°C ice-cold methanol containing 30% […]
were centrifuged at 4000 rpm for 20 min at 4°C and 100 µL of supernatant were directly transferred to a fresh MS-vial. Samples were analyzed by LC/MS-MS experiments. Quantification of remaining compounds was performed by an external calibration curve of standard solutions in the range of […]

[27] = 50 mg kg-1 i.v., 2-compartment analysis

T1 sequence (P0AES4 whole entry, one chain of several): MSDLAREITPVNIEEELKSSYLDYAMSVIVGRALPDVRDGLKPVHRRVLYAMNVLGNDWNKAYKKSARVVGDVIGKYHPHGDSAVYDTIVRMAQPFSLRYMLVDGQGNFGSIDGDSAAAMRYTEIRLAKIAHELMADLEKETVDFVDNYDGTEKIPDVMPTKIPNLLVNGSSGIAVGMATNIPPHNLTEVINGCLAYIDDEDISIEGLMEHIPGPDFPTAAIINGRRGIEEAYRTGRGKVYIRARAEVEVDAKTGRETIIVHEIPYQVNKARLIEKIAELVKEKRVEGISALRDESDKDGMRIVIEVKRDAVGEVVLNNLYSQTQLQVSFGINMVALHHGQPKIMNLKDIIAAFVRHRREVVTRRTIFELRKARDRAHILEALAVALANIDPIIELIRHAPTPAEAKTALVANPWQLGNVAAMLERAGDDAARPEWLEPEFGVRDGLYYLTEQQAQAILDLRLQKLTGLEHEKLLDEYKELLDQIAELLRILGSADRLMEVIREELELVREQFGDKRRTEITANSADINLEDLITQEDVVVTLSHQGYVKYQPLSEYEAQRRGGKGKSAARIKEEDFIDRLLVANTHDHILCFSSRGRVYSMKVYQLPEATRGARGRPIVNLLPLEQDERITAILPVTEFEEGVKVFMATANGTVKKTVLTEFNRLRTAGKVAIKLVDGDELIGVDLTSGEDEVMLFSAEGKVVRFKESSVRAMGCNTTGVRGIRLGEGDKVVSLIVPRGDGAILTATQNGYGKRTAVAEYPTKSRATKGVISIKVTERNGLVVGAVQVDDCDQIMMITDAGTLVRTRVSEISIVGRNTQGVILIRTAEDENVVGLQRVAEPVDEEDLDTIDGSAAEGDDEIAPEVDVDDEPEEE

## COc1c(NC(=O)c2ccc(NC(=O)c3ccc(NC(=O)[C@H](Cc4c[nH]nn4)NC(=O)c4ccc(NC(=O)/C(C)=C/c5ccc(O)cc5)cc4)cn3)c(OC)c2O)ccc(C(=O)O)c1O [Compound 7]
[1]; CIP-resistant S. aureus
  activity, times higher compared to 2: 8 times
[1]; Staphylococcus aureus
  MIC: 0.063 µg/mL (≈ 0.0711 µM)
[2]; read-out: antimicrobial activity (MIC), TolC (efflux transporter) knockout mutation
  MIC: ≤ 0.016 µg/mL
[2]; read-out: antimicrobial activity (MIC), before TolC knockout (parent strain)
  MIC: 0.063 µg/mL (≈ 0.0711 µM)
[2]; TolC knockout mutation
  increase of efficacy, factor: 4
[2]; knockout mutation of the tsx gene
  decrease in activity: 10 fold
[3]; [27]
  T1/2 kel, mean: 1.4 h
  T1/2 λz, mean: 8.3 h
[3]; 50 mg kg^−1 i.v., after 24 h
  plasma level as multiple of MIC for E. coli: higher than 5 times MIC
[4]
  MIC: ≤ 0.016 µg/mL
[5]; 17 mg kg^−1 applied twice
  CFU reduction in kidney: > 2 log units
  CFU reduction in spleen: more than 3 log units
[5]; 17 mg kg^−1 applied twice, lethal dose of FQR clinical isolate E. coli
  survival: all mice survived
[5]; 6 and 17 mg kg^−1 i.v. twice, lethal dose of FQR resistant E. coli
  survival after 24 h: survived
[5]; both tested doses (6 and 17 mg kg^−1 i.v. twice), versus untreated control
  reduction of bacterial counts in kidneys: > 3 log 10 CFU g^−1
[6]
  E. coli gyrase inhibition: ↑
[7]; Acinetobacter baumannii
  MIC: 0.016 µg/mL (≈ 0.0181 µM)
[7]; CIP-resistant A. baumannii
  activity, times higher compared to 2: 125 times
[8]
  MIC: 0.016 µg/mL (≈ 0.0181 µM)
[9]
  MIC: 0.016 µg/mL (≈ 0.0181 µM)
[10]; CIP-resistant E. coli
  activity, times higher compared to 2: 4 times
[10]; Escherichia coli
  MIC: 0.016 µg/mL (≈ 0.0181 µM)
[11]
  MIC: 0.25 µg/mL (≈ 0.282 µM)
[12]; CIP sensitive P. aeruginosa
  activity, times higher than 2: 4 times
[12]; Pseudomonas aeruginosa
  MIC: 1 µg/mL (≈ 1.13 µM)
[13]
  MIC: 64 µg/mL (≈ 72.2 µM)
[14]; CIP-resistant Salmonella Kentucky
  activity, times higher compared to 2: 8 times
[14]; Salmonella enterica
  MIC: 0.016 µg/mL (≈ 0.0181 µM)
[15]
  MIC: 0.5 µg/mL
[16]
  MIC: 0.25 µg/mL (≈ 0.282 µM)
[17]; CIP sensitive K. pneumonia
  activity, times higher than 2: 8 times
[17]; Klebsiella pneumoniae
  MIC: 8 µg/mL (≈ 9.03 µM)
[18]
  MIC: 0.063 µg/mL (≈ 0.0711 µM)
[19]
  MIC: ≤ 0.016 µg/mL
[20]
  MIC: 32 µg/mL (≈ 36.1 µM)
[21]
  MIC: 2 µg/mL (≈ 2.26 µM)
[22]
  MIC: 0.016 µg/mL (≈ 0.0181 µM)
[23]
  MIC: 0.031 µg/mL (≈ 0.035 µM)
[24]; E. coli, strain not given
  MIC for E. coli: 0.016 µg/mL
[24]; Escherichia coli, DSM1116
  MIC: ≤ 0.016 µg/mL
[25]
  adverse effects or histopathological observations (tolerability study): did not show any adverse effects or histopathological observations
[26]; human
  half-life at 20 µM: > 4 h
[26]; mouse
  half-life at 20 µM: 1.58 h
